The target in one series is T1, Adenosine receptor A1 (Homo sapiens, UniProt P30542).
T1 sequence (P30542 whole entry): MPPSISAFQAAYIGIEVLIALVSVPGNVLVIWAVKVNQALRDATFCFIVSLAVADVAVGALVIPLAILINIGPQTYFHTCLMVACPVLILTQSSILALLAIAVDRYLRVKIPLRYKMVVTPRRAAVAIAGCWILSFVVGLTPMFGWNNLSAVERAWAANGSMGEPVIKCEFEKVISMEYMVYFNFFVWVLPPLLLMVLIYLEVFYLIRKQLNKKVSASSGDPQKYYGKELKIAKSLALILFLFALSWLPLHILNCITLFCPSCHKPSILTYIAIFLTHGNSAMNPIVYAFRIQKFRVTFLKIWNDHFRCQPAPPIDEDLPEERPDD
The experiment in a line: Displacement of [3H]DPCPX from human adenosine A1 receptor expressed in CHO cells. The format is cell-based. In general terms: Loss of bound radioactivity is the signal in a displacement assay; it reports binding, not function.

The next series concerns the target T2, Adenosine receptor A2b (Homo sapiens, UniProt P29275).
T2 sequence (P29275 whole entry): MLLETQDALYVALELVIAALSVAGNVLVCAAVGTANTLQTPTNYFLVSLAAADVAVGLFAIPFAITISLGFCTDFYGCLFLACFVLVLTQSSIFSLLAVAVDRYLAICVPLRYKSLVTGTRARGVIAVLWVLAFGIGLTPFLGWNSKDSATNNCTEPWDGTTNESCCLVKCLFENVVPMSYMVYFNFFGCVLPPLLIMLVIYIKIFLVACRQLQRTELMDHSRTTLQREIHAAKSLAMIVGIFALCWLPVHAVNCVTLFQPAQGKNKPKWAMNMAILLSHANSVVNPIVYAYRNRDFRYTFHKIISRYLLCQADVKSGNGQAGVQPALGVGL
The experiment in a line: Displacement of [3H]DPCPX from human adenosine A2B receptor expressed in HEK293 cells. In kind it is cell-based.

In a further series the target is T3, Adenosine receptor A3 (Homo sapiens, UniProt P0DMS8).
T3 sequence (P0DMS8 whole entry): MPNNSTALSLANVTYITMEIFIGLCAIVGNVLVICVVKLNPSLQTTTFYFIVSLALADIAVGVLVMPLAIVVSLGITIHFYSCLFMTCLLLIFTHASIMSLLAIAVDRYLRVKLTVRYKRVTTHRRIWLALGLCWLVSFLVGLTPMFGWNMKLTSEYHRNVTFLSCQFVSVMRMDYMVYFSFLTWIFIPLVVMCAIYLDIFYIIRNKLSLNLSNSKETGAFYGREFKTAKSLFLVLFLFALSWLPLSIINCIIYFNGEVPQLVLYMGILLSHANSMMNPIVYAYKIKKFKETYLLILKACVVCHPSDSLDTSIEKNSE
The experiment in a line: Displacement of [3H]NECA from human adenosine A3 receptor expressed in HeLa cells. In kind it is cell-based.

Series [1] addresses Adenosine receptors; A2b & A3 (Homo sapiens) (UniProt P29275+P0DMS8). The experiment in a line: Selectivity for human adenosine A2B receptor over adenosine A3 receptor. In kind it is protein assay.
The target in series [2] is Adenosine receptors; A1 & A2b (Homo sapiens) (UniProt P30542+P29275). Nature of the series: Selectivity for human adenosine A2B receptor over adenosine A1 receptor. The format is protein assay.
A short description of series [3]: AUC in rat at 10 mg/kg, po. In kind it is ADME, organism-based. Also on record: dose 10 mg/kg, route oral. To be noted: plasma.
Series [4] in a line: Solubility of the compound. The format is physicochemical.
Series [5] is described as follows: Solubility at pH 1.2. In kind it is physicochemical. To be noted: buffer.
Series [6] can be described thus: Tmax in rat at 10 mg/kg, po. Also on record: dose 10 mg/kg, route oral. In kind it is ADME, organism-based. The conditions noted are these: in vivo.

≈ marks a conversion by molar mass, not a printed value.

The results in this text go back to ChEMBL document CHEMBL1138926, “New pyrrolopyrimidin-6-yl benzenesulfonamides: potent A2B adenosine receptor antagonists” (Bioorg Med Chem Lett, 2006).

The IC50 is the concentration that inhibits the measured activity by half. Higher therefore signals a need for much substance. One may read the AUC as the area under the concentration-time curve, a measure of exposure. Broadly, the solubility is the concentration that dissolves in the medium under given conditions. In general, Tmax refers to the time from dosing to the highest level.

In the case of `COc1ccc(CNS(=O)(=O)c2ccc(-c3cc4c([nH]3)c(=O)n(C)c(=O)n4C)cc2)nc1`, the half-maximal inhibitory concentration (IC50) was 101 nM at Adenosine receptor A1, 20 nM on Adenosine receptor A2b and 38000 nM on Adenosine receptor A3.

On to `CCCn1c(=O)c2[nH]c(-c3ccc(S(=O)(=O)NCCc4ccccn4)cc3)cc2n(C)c1=O`, for which the IC50 at Adenosine receptor A1 came to 123 nM; on Adenosine receptor A3, 844 nM.

For the compound `CCCn1c(=O)c2[nH]c(-c3ccc(S(=O)(=O)N4CCN(Cc5ccc(C#N)cc5)CC4)cc3)cc2n(C)c1=O`, the IC50 on Adenosine receptor A1 is 370 nM; on Adenosine receptor A2b, 6 nM; at Adenosine receptor A3 it was 950 nM. The Selectivity ratio in [1] was 160; in [2] it was 62.

With `CCCn1c(=O)n(C)c(=O)c2[nH]c(-c3ccc(S(=O)(=O)N4CCN(Cc5ccc6c(c5)OCO6)CC4)cc3)cc21`, the IC50 at Adenosine receptor A1 was 102 nM; on Adenosine receptor A2b it was 13 nM; on Adenosine receptor A3, 14900 nM.

For the compound `Cn1c(=O)c2[nH]c(-c3ccc(S(=O)(=O)NCCOc4ccccn4)cc3)cc2n(C)c1=O`, the half-inhibitory concentration (IC50) came out at 396 nM on Adenosine receptor A1 and 6440 nM on Adenosine receptor A3.

`Cn1c(=O)c2[nH]c(-c3ccc(S(=O)(=O)N4CCN(Cc5ccncc5)CC4)cc3)cc2n(C)c1=O` came in with a half-maximal inhibitory concentration (IC50) on Adenosine receptor A2b of 27 nM.

Consider `COc1ccc(NS(=O)(=O)c2ccc(-c3cc4c([nH]3)c(=O)n(C)c(=O)n4C)cc2)cn1`, for which the 50% inhibitory concentration (IC50) at Adenosine receptor A1 is 54 nM; on Adenosine receptor A3 it was 1520 nM.

Turning to `Cn1c(=O)c2[nH]c(-c3ccc(S(=O)(=O)N4CCN(Cc5cccc(F)c5)CC4)cc3)cc2n(C)c1=O`, the values for the IC50 at Adenosine receptor A1 and at Adenosine receptor A3 were 152 nM and 8890 nM, respectively.

With `Cn1c(=O)c2[nH]c(-c3ccc(S(=O)(=O)N4CCN(Cc5ccc(F)cc5F)CC4)cc3)cc2n(C)c1=O`, the figures for the IC50 at Adenosine receptor A1 and on Adenosine receptor A2b were 126 nM and 7 nM, respectively.

`CCn1c(=O)c2[nH]c(-c3ccc(S(=O)(=O)NC4CCN(Cc5ccc(F)cc5)CC4)cc3)cc2n(CC)c1=O`: the half-maximal inhibitory concentration (IC50) at Adenosine receptor A1 was found to be 205 nM; at Adenosine receptor A2b it was 12 nM; at Adenosine receptor A3 it was 4310 nM.

Turning to `Cn1c(=O)c2[nH]c(-c3ccc(S(=O)(=O)N4CCN(Cc5ccc(Br)cc5)CC4)cc3)cc2n(C)c1=O`, the IC50 at Adenosine receptor A1 turned out to be 183 nM; at Adenosine receptor A2b, 1 nM; on Adenosine receptor A3, 12300 nM. In addition, the figures for the Selectivity ratio in series [1] and in series [2] were 12300 and 183, respectively.

Consider `Cn1c(=O)c2[nH]c(-c3ccc(S(=O)(=O)NC4CCN(Cc5ccccc5)CC4)cc3)cc2n(C)c1=O`, for which the half-inhibitory concentration (IC50) at Adenosine receptor A2b was 43 nM. In other words, the double-digit nanomolar range.

In [3], `Cn1c(=O)c2[nH]c(-c3ccc(OCC(=O)Nc4ccc(Br)cc4)cc3)cc2n(C)c1=O` yielded an AUC below 20 ng·h/mL. Moreover, the solubility in [4] was below 10 µg/mL.

Turning to `CCn1c(=O)c2[nH]c(-c3ccc(S(=O)(=O)N4CCN(Cc5cccc(F)c5)CC4)cc3)cc2n(CC)c1=O`, the values for the IC50 on Adenosine receptor A1, on Adenosine receptor A2b and on Adenosine receptor A3 were 350 nM, 15 nM and 21900 nM, respectively.

For `Cn1c(=O)c2[nH]c(-c3ccc(S(=O)(=O)N4CCN(c5ccccc5)CC4)cc3)cc2n(C)c1=O`, the IC50 at Adenosine receptor A2b amounted to 6 nM. Also, the solubility in series [4] was below 10 µg/mL.

`CCn1c(=O)c2[nH]c(-c3ccc(S(=O)(=O)NCCc4ccccn4)cc3)cc2n(CC)c1=O`: the concentration for half-maximal inhibition (IC50) is 140 nM on Adenosine receptor A1, 75 nM on Adenosine receptor A2b and 18900 nM at Adenosine receptor A3.

As for `Cn1c(=O)c2[nH]c(-c3ccc(S(=O)(=O)Nc4ccccn4)cc3)cc2n(C)c1=O`, the IC50 was determined as 68 nM on Adenosine receptor A1 and 1320 nM at Adenosine receptor A3.

The compound `CN(C1CCN(Cc2ccccc2)CC1)S(=O)(=O)c1ccc(-c2cc3c([nH]2)c(=O)n(C)c(=O)n3C)cc1` gave an IC50 at Adenosine receptor A2b of 90 nM.

As to `Cn1c(=O)c2[nH]c(-c3ccc(S(=O)(=O)N4CCN(Cc5ccccc5)CC4)cc3)cc2n(C)c1=O`, the IC50 at Adenosine receptor A1 amounted to 415 nM; on Adenosine receptor A3 it was 3170 nM. The compound also showed a solubility in series [5] of 70 µg/mL (≈ 142 µM). Further, the AUC in series [3] turned out to be 252 ng·h/mL. In series [6], the Tmax was found to be 6 h.

With `Cn1c(=O)c2[nH]c(-c3ccc(S(=O)(=O)NCCc4ccccn4)cc3)cc2n(C)c1=O`, the figures for the IC50 on Adenosine receptor A1 and on Adenosine receptor A3 were 150 nM and 2080 nM, respectively. Also, the solubility in series [5] worked out at 57 µg/mL (≈ 130 µM). In series [3], the AUC was 985 ng·h/mL. The time to peak (Tmax) in [6] came out at 6 h.

For `CCCn1c(=O)c2[nH]c(-c3ccc(S(=O)(=O)NC4CCN(Cc5ccccc5)CC4)cc3)cc2n(CCC)c1=O`, the IC50 on Adenosine receptor A1 was 59 nM; at Adenosine receptor A2b it was 18 nM; at Adenosine receptor A3 it was 1470 nM.

In turn, `Cn1c(=O)c2[nH]c(-c3ccc(S(=O)(=O)N4CCN(Cc5ccc(F)cc5)CC4)cc3)cc2n(C)c1=O` displayed an IC50 at Adenosine receptor A2b of 10 nM.

For the compound `CCCn1c(=O)n(C)c(=O)c2[nH]c(-c3ccc(S(=O)(=O)N4CCN(Cc5cccc(F)c5)CC4)cc3)cc21`, the IC50 at Adenosine receptor A2b came out at 17 nM.

As to `CCCn1c(=O)c2[nH]c(-c3ccc(S(=O)(=O)NCc4ccc(OC)cn4)cc3)cc2n(C)c1=O`, the concentration for half-maximal inhibition (IC50) on Adenosine receptor A1 was 12 nM; at Adenosine receptor A2b it was 15 nM; on Adenosine receptor A3, 7600 nM.

In the case of `Cn1c(=O)c2[nH]c(-c3ccc(S(=O)(=O)N4CCN(Cc5ccc(Cl)s5)CC4)cc3)cc2n(C)c1=O`, the IC50 at Adenosine receptor A1 is 102 nM; at Adenosine receptor A3, 5250 nM.
